Assay results as given in patent publication US9637490B2, “Antifungal 5,6-dihydro-4-[(difluoroethyl)phenyl]-4H-pyrrolo[1,2-α][1,4]benzodiazepine and 4-(difluoroethyl)phenyl-6H-pyrrolo[1,2-α][1,4]benzodiazepine derivatives” (Janssen Pharmaceutica NV, priority 2010, dated 2017).
Values after ≈ are worked out from the molar mass of the structure shown. Like-named read-outs stand apart in the source and are kept apart here.

Legend:
[1] = test system: Microsporum canis (strain B68128); assay: Analogous protocol: comparison compounds (G10, G11) against M. canis in guinea pigs after oral treatment; type: in vivo; design: key to semi-quantitative lesion score (mean): lesion score 0–3.5 by severity and size of lesion; conditions: oral 50 mg/kg once daily for 7 days
Experimental: (§1) The animals used in the tests described below were female Guinea pigs (Duncan-Hartley, Charles River, 200 g). These animals were kept in groups of 2 or 3 in cages of 56×33×20 cm^3. Food pellets (Carfil Quality) and water were available ad libitum in addition to a small daily amount of hay. Standard husbandry conditions were adopted: room temperature: 22° C., humidity level: 60% and a day-night cycle of 12 h.
(§2) For the preparation of inoculums, Microsporum canis (strain B68128) was grown on Sabouraud Dextrose Agar (SDA) plates for at least one week (7-10 days) before infection (27° C.). On the day of infection, spores were harvested by adding 4-5 ml sterile water on the plate and suspending the infectious material with a bend Pasteur pipette. From the recollected fluid, 10 μl was added to a KOVA counting chamber for determination of the number of spores in 1 square (average of several squares). If needed, additional dilutions (10× or 100×) were prepared. The average number of spores in one square×dilution×90.000=cfu/ml. An inoculum of 1×10^7 cfu/ml was prepared in a honey-water mixture (50%-50%).
(§3) In the tests described below, semi-quantitative lesion scores were given based on different clinical parameters. Scores between 0 and 3.5 were assigned based on the severity and size of the lesion. The criteria are listed in detail in Table 6.
For the sake of comparison, 2 compounds not having the 1,1-difluoroethyl moiety in the R^5 or R^6 position, were tested in an analogous protocol:
(§4) The dorsum of the guinea pigs was shaved and further depilated for 7 minutes with Veet® creme before scarification with a steel brush. An inoculum of 10^6 cfu in 200 μl (100 μl mQ+100 μl honey) was applied to the wound using a micropipette with disposable tips. The animal was kept immobilized until the inoculum had completely dried.
Vehicle: methocel F4M Premium EP, Tween 80® (polysorbate 80), demineralised water.
Test compounds: prepared at 30 mg/ml, subsequently further diluted until 6 mg/ml.
Oral treatment (gavage 0.40 ml/guinea pig once daily) was started about 2 hours before infection and continued once daily for 7 consecutive days.
Developments of lesions were evaluated following the semi-quantitative lesion scoring system (see Table 6) on days 3, 5, 7, 10, 12, 14, 18 and 21. Reported values in Table 8 are mean values.

[2] = test system: Sporothrix schenkii B62482; assay: Antifungal activity in vitro (resazurin susceptibility screen), Inf. A; type: cell-based; conditions: Sporothrix, B62482, Sporothrix schenkii B62482; 27 °C, 4 days, resa time 24 hours
Summary of the method: (§5)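 Serial dilutions were tested up to 64 μM in RPMI-1640 with L-glutamine and 2% glucose, MOPS-buffered at pH 7.0, against an inoculum of 10^3 cfu per well. Incubation lasted from 24 h at 37° C. for yeasts to a week or more at 27° C. for dermatophytes. Growth was then read fluorimetrically after resazurin (ex 550/em 590 nm).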

[3] = test system: Candida parapsilosis B66126; assay: Antifungal activity in vitro (resazurin susceptibility screen), Inf. D; type: cell-based; conditions: Lodderomyces parapsilosis, B66126, Candida parapsilosis B66126; 37 °C, 24 hours, resa time 4 hours
Summary of the method: as §5

[4] = test system: Mucor circinelloides IHEM21105; assay: Antifungal activity in vitro (resazurin susceptibility screen), Inf. L; type: cell-based; conditions: 27 °C, 48 hours, resa time 17 hours
Summary of the method: as §5

[5] = test system: Scedosporium prolificans IHEM21157; assay: Antifungal activity in vitro (resazurin susceptibility screen), Inf. I; type: cell-based; conditions: Lomentospora prolificans, 37 °C, 48 hours, resa time 17 hours
Summary of the method: as §5

[6] = test system: Trichophyton mentagrophytes B70554; assay: Antifungal activity in vitro (resazurin susceptibility screen), Inf. G; type: cell-based; conditions: Trichophyton mentagrophytes, B70554, Trichophyton mentagrophytes B70554; 27 °C, 7 days, resa time 24 hours
Summary of the method: as §5

[7] = test system: Rhizomucor miehei IHEM13391; assay: Antifungal activity in vitro (resazurin susceptibility screen), Inf. K; type: cell-based; conditions: Rhizomucor miehei, IHEM13391, Rhizomucor miehei IHEM13391; 37 °C, 48 hours, resa time 17 hours
Summary of the method: as §5

[8] = test system: Microsporum canis (strain B68128); assay: Test D.4.1: activity against M. canis in guinea-pigs after oral treatment for 7 consecutive days; type: in vivo; design: key to semi-quantitative lesion score (mean): lesion score 0–3.5 by severity and size of lesion
Experimental: as §1, §2, §3
as §4, with “3” for “7”, “150” for “200”, “(75 mQ+75” for “(100 μl mQ+100”, “dried. […]” for “dried.”
vehicle: methocel 0.5%, Tween 80® (polysorbate 80), demineralised water reference compound: itraconazole at 6.25 mg/ml test compounds: prepared at 25 mg/ml, subsequently further diluted
Oral treatment (gavage 0.16 ml/100 g once daily) was started about 2 hours before infection and continued once daily for 7 consecutive days. The animals were weighed after 3 days of treatment to adjust for the dose.
Developments of lesions were evaluated following the semi-quantitative lesion scoring system (see Table 6) on days 3, 5, 7, 10, 12, 14, 17 and 20. The results are show in Table 7 (“DPI” means days post infection). Reported values in Table 7 are mean values.

Microsporum canis B68128 = assay: Antifungal activity in vitro (resazurin susceptibility screen), Inf. B; type: cell-based; conditions: Microsporum canis, B68128, Microsporum canis B68128; 27 °C, 9 days, resa time 24 hours
Summary of the method: as §5

[9] = test system: Aspergillus fumigatus B42928; assay: Antifungal activity in vitro (resazurin susceptibility screen), Inf. E; type: cell-based; conditions: Aspergillus fumigatus, B42928, Aspergillus fumigatus B42928; 27 °C, 48 hours, resa time 17 hours
Summary of the method: as §5

Rhizopus oryzae IHEM5223 = assay: Antifungal activity in vitro (resazurin susceptibility screen), Inf. J; type: cell-based; conditions: Rhizopus arrhizus, 37 °C, 24 hours, resa time 6 hours
Summary of the method: as §5

[10] = test system: Scedosporium apiospermum IHEM3817; assay: Antifungal activity in vitro (resazurin susceptibility screen), Inf. H; type: cell-based; conditions: Scedosporium apiospermum, IHEM3817, Scedosporium apiospermum IHEM3817; 37 °C, 48 hours, resa time 17 hours
Summary of the method: as §5

[11] = test system: Cryptococcus neoformans B66663; assay: Antifungal activity in vitro (resazurin susceptibility screen), Inf. F; type: cell-based; conditions: Cryptococcus neoformans, B66663, Cryptococcus neoformans B66663; 37 °C, 24 hours, resa time 4 hours
Summary of the method: as §5

[12] = test system: Trichophyton rubrum B68183; assay: Antifungal activity in vitro (resazurin susceptibility screen), Inf. C; type: cell-based; conditions: Trichophyton rubrum, B68183, Trichophyton rubrum B68183; 27 °C, 7 days, resa time 24 hours
Summary of the method: as §5

[13] = Solubility in buffer systems A-G; type: physicochemical; conditions: thermodynamic from solid
Experimental: A magnetic stirring bar was added to the mixtures. […] If the compound was dissolved, the result was reported (twice the weighed amount of compound/ml). If the compound was not dissolved, 0.5 ml of extra solvent was added to the suspension. […] If the compound was dissolved, the result was reported (weighed amount of compound/ml). If the compound was not dissolved, 1 ml of extra solvent is pipetted into the suspension. The mixtures were shaken (Edmund Buhler SM25 175 SPM) at ambient temperature overnight and inspected afterwards. If the compound was dissolved, the result was reported (half the weighed amount of compound/ml). If the compound was not dissolved, the suspension was filtered over a filter disc. An aliquot of the filtrate was diluted with an appropriate solvent (0.1 N HCl/acetonitrile 1/1) and submitted for concentration measurement (mg/ml) using a generic UPLC method.

[14] = pH 4, aqueous with cosolvent or surfactant or cyclodextrin, buffer pH 4, containing 10% (w/v) of HPBCD, read-out: Solubility, buffer system C
[15] = pH 7.4, aqueous with cosolvent or surfactant or cyclodextrin, buffer pH 7.4, containing 10% (w/v) of HPBCD, read-out: Solubility, buffer system F
[16] = pH 7.4, aqueous with cosolvent or surfactant or cyclodextrin, buffer pH 7.4, containing 20% (w/v) of HPBCD, read-out: Solubility, buffer system G

CCc1cccc(C2=NCc3c(Cl)cccc3-n3cccc32)c1 [Compound G10]
activity against M. canis (in words) [1]: partial activity
activity compared with present compounds 14 and 4 (G7 and G4, both at 40 mg/kg) [1]: less active
semi-quantitative lesion score (mean) ([1]; 3 DPI): 0
semi-quantitative lesion score (mean) ([1]; 5 DPI): 0.5
semi-quantitative lesion score (mean) ([1]; 7 DPI): 1
semi-quantitative lesion score (mean) ([1]; 10 DPI): 1
semi-quantitative lesion score (mean) ([1]; 12 DPI): 2
semi-quantitative lesion score (mean) ([1]; 14 DPI): 1
semi-quantitative lesion score (mean) ([1]; 18 DPI): 1
semi-quantitative lesion score (mean) ([1]; 21 DPI): 0.5

CC(F)(F)c1cccc(C2=NCc3c(Cl)cccc3-n3cccc32)c1 [Compound 14, 7-chloro-4-[3-(1,1-difluoroethyl)phenyl]-6H-pyrrolo[1,2-a][1,4]benzodiazepine]
IC50 [2]: 43700 nM
melting point: 106.9 to 109.7 °C
IC50 [3]: 3020 nM
IC50 [4]: > 64600 nM
IC50 [5]: 1320 nM
IC50 [6]: 603 nM
IC50 [7]: 45700 nM
semi-quantitative lesion score (mean) ([8]; oral 10 mg/kg once daily for 7 days, 3 DPI): 0.33
semi-quantitative lesion score (mean) ([8]; oral 10 mg/kg once daily for 7 days, 5 DPI): 1.17
semi-quantitative lesion score (mean) ([8]; oral 10 mg/kg once daily for 7 days, 7 DPI): 2.00
semi-quantitative lesion score (mean) ([8]; oral 10 mg/kg once daily for 7 days, 10 DPI): 2.17
semi-quantitative lesion score (mean) ([8]; oral 10 mg/kg once daily for 7 days, 12 DPI): 2.33
semi-quantitative lesion score (mean) ([8]; oral 10 mg/kg once daily for 7 days, 14 DPI): 2.17
semi-quantitative lesion score (mean) ([8]; oral 10 mg/kg once daily for 7 days, 17 DPI): 1.67
semi-quantitative lesion score (mean) ([8]; oral 10 mg/kg once daily for 7 days, 20 DPI): 1.17
semi-quantitative lesion score (mean) ([8]; oral 20 mg/kg once daily for 7 days, 3 DPI): 0
semi-quantitative lesion score (mean) ([8]; oral 20 mg/kg once daily for 7 days, 5 DPI): 0.33
semi-quantitative lesion score (mean) ([8]; oral 20 mg/kg once daily for 7 days, 7 DPI): 0.83
semi-quantitative lesion score (mean) ([8]; oral 20 mg/kg once daily for 7 days, 10 DPI): 1.67
semi-quantitative lesion score (mean) ([8]; oral 20 mg/kg once daily for 7 days, 12 DPI): 2.00
semi-quantitative lesion score (mean) ([8]; oral 20 mg/kg once daily for 7 days, 14 DPI): 1.67
semi-quantitative lesion score (mean) ([8]; oral 20 mg/kg once daily for 7 days, 17 DPI): 1.50
semi-quantitative lesion score (mean) ([8]; oral 20 mg/kg once daily for 7 days, 20 DPI): 0.67
activity compared with the terbinafine group (G2, 10 mg/kg) ([8]; oral 40 mg/kg once daily for 7 days): comparable to G2
semi-quantitative lesion score (mean) ([8]; oral 40 mg/kg once daily for 7 days, 3 DPI): 0
semi-quantitative lesion score (mean) ([8]; oral 40 mg/kg once daily for 7 days, 5 DPI): 0.17
semi-quantitative lesion score (mean) ([8]; oral 40 mg/kg once daily for 7 days, 7 DPI): 0.67
semi-quantitative lesion score (mean) ([8]; oral 40 mg/kg once daily for 7 days, 10 DPI): 1.17
semi-quantitative lesion score (mean) ([8]; oral 40 mg/kg once daily for 7 days, 12 DPI): 0.83
semi-quantitative lesion score (mean) ([8]; oral 40 mg/kg once daily for 7 days, 14 DPI): 0.50
semi-quantitative lesion score (mean) ([8]; oral 40 mg/kg once daily for 7 days, 17 DPI): 0.17
semi-quantitative lesion score (mean) ([8]; oral 40 mg/kg once daily for 7 days, 20 DPI): 0.17
IC50 (Microsporum canis B68128): 525 nM
IC50 [9]: 2000 nM
IC50 (Rhizopus oryzae IHEM5223): > 64600 nM
IC50 [10]: 1740 nM
IC50 [11]: 37200 nM
IC50 [12]: 372 nM

CCc1ccc(C2=NCc3c(Cl)cccc3-n3cccc32)cc1 [Compound G11]
activity against M. canis (in words) [1]: partial activity
activity compared with present compounds 14 and 4 (G7 and G4, both at 40 mg/kg) [1]: less active
semi-quantitative lesion score (mean) ([1]; 3 DPI): 0
semi-quantitative lesion score (mean) ([1]; 5 DPI): 0
semi-quantitative lesion score (mean) ([1]; 7 DPI): 0.5
semi-quantitative lesion score (mean) ([1]; 10 DPI): 0.5
semi-quantitative lesion score (mean) ([1]; 12 DPI): 0.5
semi-quantitative lesion score (mean) ([1]; 14 DPI): 1
semi-quantitative lesion score (mean) ([1]; 18 DPI): 0.5
semi-quantitative lesion score (mean) ([1]; 21 DPI): 0.5

CCc1ccc(C2=NCc3ccc(Cl)cc3-n3cccc32)cc1 [drawing 29]
solubility ([13]; pH 4, aqueous buffer, buffer pH 4, ambient temperature, read-out: Solubility, buffer system B): < 1 µg/mL
solubility [13, 14]: 48 µg/mL (≈ 150 µM)
solubility ([13]; pH 4, aqueous with cosolvent or surfactant or cyclodextrin, buffer pH 4, containing 20% (w/v) of HPBCD, read-out: Solubility, buffer system D): 1490 µg/mL (≈ 4640 µM)
solubility ([13]; pH 7.4, aqueous buffer, buffer pH 7.4, ambient temperature, read-out: Solubility, buffer system E): < 1 µg/mL
solubility [13, 15]: 35 µg/mL (≈ 109 µM)
solubility [13, 16]: 110 µg/mL (≈ 343 µM)
solubility ([13]; simulated gastric fluid, 0.01 N HCl, ambient temperature, read-out: Solubility, buffer system A): 1880 µg/mL (≈ 5850 µM)

CC(F)(F)c1ccc(C2=NCc3ccc(Cl)cc3-n3cccc32)cc1 [drawing 30]
solubility [13, 14]: 1230 µg/mL (≈ 3440 µM)
solubility [13, 15]: 191 µg/mL (≈ 535 µM)
solubility [13, 16]: 603 µg/mL (≈ 1690 µM)
solubility ([13]; phosphate-citrate (McIlvaine) buffer pH 4, pH 4, aqueous buffer, buffer pH 4, ambient temperature, read-out: Solubility, buffer system B): 87 µg/mL (≈ 244 µM)
solubility ([13]; phosphate-citrate (McIlvaine) buffer pH 7.4, pH 7.4, aqueous buffer, buffer pH 7.4, ambient temperature, read-out: Solubility, buffer system E): < 1 µg/mL
